Laboratory results from article PMC7803792 (Slas Discovery, 2021).
“Also recorded” adds a separate entry of the source.

How the values were obtained:
[1] = target: T1, SARS-CoV-2 nsp10-nsp16 complex (Severe acute respiratory syndrome coronavirus 2, UniProt P0DTD1); assay: FP-based RNA displacement assay; format: binding; settings: concentration for 50% displacement of 30 nM FAM-RNA from 0.5 µM nsp10-nsp16 complex
[2] = target: SARS-CoV nsp10-nsp16 complex; settings: cited from earlier work
[3] = target: T1, SARS-CoV-2 nsp10-nsp16 complex; assay: Isothermal titration calorimetry; format: binding
[4] = target: T1, SARS-CoV-2 nsp10-nsp16 complex; settings: FP, 30 nM FAM-RNA, maximum FP signal

| Molecule | Kdisp (K displacement) [1] | other results |
| --- | --- | --- |
| Cn1c[n+]([C@@H]2O[C@H](COP(=O)(O)OP(=O)(O)OP(=O)(O)OC[C@H]3O[C@@H](n4cnc5c(=O)[nH]c(N)nc54)[C@H](O)[C@@H]3O)[C@@H](O)[C@H]2O)c2nc(N)[nH]c(=O)c21 [N7-meGpppG, m7G(5′)ppp(5′G] | 17 ± 3 µM |  |
| Cn1c[n+]([C@@H]2O[C@H](COP(=O)(O)OP(=O)(O)OP(=O)(O)OC[C@H]3O[C@@H](n4cnc5c(N)ncnc54)[C@H](O)[C@@H]3O)[C@@H](O)[C@H]2O)c2nc(N)[nH]c(=O)c21 [N7-meGpppA, m7G(5′)ppp(5′)A] | 20 ± 6 µM |  |
| C[S+](CC[C@H](N)C(=O)[O-])C[C@H]1O[C@@H](n2cnc3c(N)ncnc32)[C@H](O)[C@@H]1O (stereo partly drawn) [SAM, S-adenosyl-L-methionine] |  | Kd [2]: 5.59 ± 1.15 µM; Kd [3]: 3.4 ± 1.5 µM |
| Nc1nc2c(ncn2[C@@H]2O[C@H](COP(=O)(O)OP(=O)(O)OP(=O)(O)OC[C@H]3O[C@@H](n4cnc5c(N)ncnc54)[C@H](O)[C@@H]3O)[C@@H](O)[C@H]2O)c(=O)[nH]1 [GpppA, G(5′)ppp(5′)A] | unable to displace; also recorded: did not disrupt; also recorded: no RNA displacement |  |
| 5′ N7-meGpppACCCCC-FAM 3′ |  | Bmax [4]: 270 ± 5 mP |
| Nc1nc2c(ncn2[C@@H]2O[C@H](COP(=O)(O)OP(=O)(O)OP(=O)(O)OC[C@H]3O[C@@H](n4cnc5c(=O)[nH]c(N)nc54)[C@H](O)[C@@H]3O)[C@@H](O)[C@H]2O)c(=O)[nH]1 [GpppG, G(5′)ppp(5′)G] | unable to displace; also recorded: did not disrupt; also recorded: no RNA displacement |  |
